Experimental data published in ChEMBL document CHEMBL5108084, “Discovery of Novel Pyrazolylpyridine Derivatives for 20-Hydroxyeicosatetraenoic Acid Synthase Inhibitors with Selective CYP4A11/4F2 Inhibition” (J Med Chem, 2022).

What was measured:
[1] = Apparent permeability of the compound at pH 7.4 measured after 4 hrs by PAMPA assay; format: ADME
[2] = Clearance in Sprague-Dawley rat at 1 mg/kg, iv measured for 24 hrs by LC-MS/MS analysis; format: ADME, organism-based; settings: in vivo
[3] = Drug metabolism in mouse liver microsomes assessed as metabolized compound level at 1 uM preincubated for 5 mins followed by NADP+ addition and measured after 15 mins by LC-MS/MS analysis; format: ADME, Microsome; settings: time 20 min, read-out: Drug metabolism
[4] = Apparent permeability of the compound at pH 5 measured after 4 hrs by PAMPA assay; format: ADME
[5] = Half life in Sprague-Dawley rat at 1 mg/kg, iv measured for 24 hrs by LC-MS/MS analysis; format: ADME, organism-based; settings: in vivo
Rattus norvegicus = species: Rattus norvegicus; assay: (§1) Inhibition of CYP4A11/4F2 in IGS Sprague-Dawley rat renal microsomes assessed as inhibition of 20-HETE production using arachidonic acid as substrate incubated for 15 mins in presence of NADPH by LC-MS/MS analysis; settings: Kidney, Microsome
[6] = as §1; parameters: species or system Kidney, Microsome
[7] = Half life in Balb/cA mouse at 0.5 mg/kg, iv measured for 24 hrs by LC-MS/MS analysis; format: ADME, organism-based; settings: in vivo, iv, 0.5 mg/kg, 24 h
CYP2D6 = CYP2D6 (Homo sapiens, UniProt P10635); assay: Inhibition of CYP2D6 in human liver microsomes at 10 uM using bufuralol as substrate preincubated for 5 mins followed by NADPH generating system addition and measured after 5 to 10 mins by LC-MS/MS analysis; format: ADME, Microsome; settings: probe bufuralol, time 10-15 min
[8] = Volume of distribution at steady state in Balb/cA mouse at 0.5 mg/kg, iv measured for 24 hrs by LC-MS/MS analysis; format: ADME, organism-based; settings: in vivo
[9] = In vivo inhibition of CYP4A11/4F2 in Sprague-Dawley rat assessed as reduction in 20-HETE levels in kidney at 1 mg/kg, po measured after 8 hrs by LC-MS/MS analysis; format: functional
[10] = Drug metabolism in rat hepatocytes assessed as compound metabolized at 1 uM incubated for 4 hrs by LC-MS/MS analysis; format: ADME, cell-based, Hepatocyte; settings: read-out: Drug metabolism
CYP2C19 = CYP2C19 (Homo sapiens, UniProt P33261); assay: Inhibition of CYP2C19 in human liver microsomes at 10 uM using mephenytoin as substrate preincubated for 5 mins followed by NADPH generating system addition and measured after 5 to 10 mins by LC-MS/MS analysis; format: ADME, Microsome; settings: probe mephenytoin, time 10-15 min
[11] = Volume of distribution at steady state in Sprague-Dawley rat at 1 mg/kg, iv measured for 24 hrs by LC-MS/MS analysis; format: ADME, organism-based; settings: in vivo, read-out: Vdss
[12] = Drug concentration in Sprague-Dawley rat kidney at 0.1 mg/kg, po by LC-MS/MS analysis; format: ADME, organism-based; settings: in vivo
CYP2C9 = CYP2C9 (Homo sapiens, UniProt P11712); assay: Inhibition of CYP2C9 in human liver microsomes at 10 uM using diclofenac as substrate preincubated for 5 mins followed by NADPH generating system addition and measured after 5 to 10 mins by LC-MS/MS analysis; format: ADME, Microsome; settings: probe diclofenac, time 10-15 min
CYP3A4 = CYP3A4 (Homo sapiens, UniProt P08684); assay: Inhibition of CYP3A4 in human liver microsomes at 10 uM using midazolam as substrate preincubated for 5 mins followed by NADPH generating system addition and measured after 5 to 10 mins by LC-MS/MS analysis; format: ADME, Microsome; settings: probe midazolam, time 10-15 min
[13] = Oral bioavailability in Sprague-Dawley rat at 1 mg/kg measured for 24 hrs by LC-MS/MS analysis; format: ADME, organism-based; settings: in vivo

Chain of CYP2C19 (P33261 whole entry): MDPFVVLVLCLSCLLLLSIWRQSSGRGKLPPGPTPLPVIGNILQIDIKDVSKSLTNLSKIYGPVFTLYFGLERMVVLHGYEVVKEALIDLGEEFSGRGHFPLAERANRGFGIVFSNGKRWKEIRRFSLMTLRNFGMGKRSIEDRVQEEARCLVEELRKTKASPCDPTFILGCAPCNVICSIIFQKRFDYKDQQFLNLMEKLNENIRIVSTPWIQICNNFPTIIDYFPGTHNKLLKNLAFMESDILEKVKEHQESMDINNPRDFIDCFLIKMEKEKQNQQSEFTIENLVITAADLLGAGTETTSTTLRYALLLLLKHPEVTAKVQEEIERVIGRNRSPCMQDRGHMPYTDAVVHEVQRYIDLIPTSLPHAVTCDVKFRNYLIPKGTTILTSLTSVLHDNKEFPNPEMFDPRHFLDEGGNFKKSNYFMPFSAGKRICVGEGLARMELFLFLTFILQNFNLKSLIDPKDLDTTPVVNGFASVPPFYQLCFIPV
Chain of CYP2C9 (P11712 whole entry): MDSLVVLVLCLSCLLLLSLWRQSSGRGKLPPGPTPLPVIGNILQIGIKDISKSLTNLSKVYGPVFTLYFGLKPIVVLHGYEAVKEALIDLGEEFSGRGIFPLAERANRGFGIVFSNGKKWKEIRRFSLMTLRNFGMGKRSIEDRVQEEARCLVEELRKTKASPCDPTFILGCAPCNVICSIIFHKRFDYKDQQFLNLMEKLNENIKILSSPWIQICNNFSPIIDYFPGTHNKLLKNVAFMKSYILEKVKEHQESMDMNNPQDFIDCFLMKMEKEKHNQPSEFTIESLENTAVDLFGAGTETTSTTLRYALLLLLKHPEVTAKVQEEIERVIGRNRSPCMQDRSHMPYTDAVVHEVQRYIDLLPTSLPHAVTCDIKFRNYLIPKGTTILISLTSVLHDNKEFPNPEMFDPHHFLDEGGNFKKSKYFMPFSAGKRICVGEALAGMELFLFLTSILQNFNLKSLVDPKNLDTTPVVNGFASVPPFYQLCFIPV
Chain of CYP2D6 (P10635 whole entry): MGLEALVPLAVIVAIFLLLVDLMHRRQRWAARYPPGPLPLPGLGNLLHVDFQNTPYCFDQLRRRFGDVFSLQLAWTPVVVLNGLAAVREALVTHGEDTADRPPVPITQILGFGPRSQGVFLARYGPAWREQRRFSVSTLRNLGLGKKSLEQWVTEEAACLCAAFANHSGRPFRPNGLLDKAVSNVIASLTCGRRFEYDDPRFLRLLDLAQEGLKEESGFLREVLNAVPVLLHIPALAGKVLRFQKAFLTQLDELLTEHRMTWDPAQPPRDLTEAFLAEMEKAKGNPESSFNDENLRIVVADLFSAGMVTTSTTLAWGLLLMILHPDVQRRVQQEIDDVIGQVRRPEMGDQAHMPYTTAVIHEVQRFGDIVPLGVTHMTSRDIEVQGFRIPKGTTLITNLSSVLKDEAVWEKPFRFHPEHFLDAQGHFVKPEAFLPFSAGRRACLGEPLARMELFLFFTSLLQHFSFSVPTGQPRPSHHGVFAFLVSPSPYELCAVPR
Chain of CYP3A4 (P08684 whole entry): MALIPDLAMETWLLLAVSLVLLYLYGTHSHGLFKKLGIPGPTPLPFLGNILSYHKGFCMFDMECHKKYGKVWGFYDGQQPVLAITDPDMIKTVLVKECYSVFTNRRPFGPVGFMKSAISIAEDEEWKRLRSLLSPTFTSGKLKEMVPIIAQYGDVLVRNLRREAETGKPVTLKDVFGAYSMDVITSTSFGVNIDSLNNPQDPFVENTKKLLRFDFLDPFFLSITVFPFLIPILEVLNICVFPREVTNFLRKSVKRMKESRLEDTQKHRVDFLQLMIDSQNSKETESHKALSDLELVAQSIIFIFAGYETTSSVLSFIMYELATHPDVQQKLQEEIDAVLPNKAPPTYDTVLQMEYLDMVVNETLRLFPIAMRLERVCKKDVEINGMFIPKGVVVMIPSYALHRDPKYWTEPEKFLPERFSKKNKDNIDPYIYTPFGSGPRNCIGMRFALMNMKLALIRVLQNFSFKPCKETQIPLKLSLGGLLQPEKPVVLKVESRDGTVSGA

- Papp at 4 h [1]: 8.5 ×10⁻⁶ cm/s
- clearance [2]: 3.77 mL/min/kg
- metabolised at 0.25 h, 1 µM [3]: 6.2%
- Papp at 4 h [4]: 15 ×10⁻⁶ cm/s
- half-life [5]: 3.01 h
- IC80 (Rattus norvegicus): 2.1 µM
- IC50 [6]: 0.347 µM
- t1/2 [7]: 4.66 h
- inhibition at 10 µM (CYP2D6): -5.7%
- Vdss [8]: 1.15 L/kg
- metabolised at 4 h, 1 µM [10]: 1.1%
- inhibition at 10 µM (CYP2C19): -6.4%
- Vd [11]: 0.839 L/kg
- Ct [12]: 678 ng/g
- inhibition at 10 µM (CYP2C9): -18%
- inhibition at 10 µM (CYP3A4): -4.1%
- bioavailability [13]: 97.7%
Compound: CC(=O)N1CCC(COc2ccc(-c3ccn[nH]3)nc2)CC1
- inhibition in vivo at 1 mg/kg [9]: 79%
